The test deals with T1, FITC-labeled CFTRpS753pS768 peptide (no 14-3-3) (Homo sapiens, UniProt P13569).
T1 construct: made in house; host or cells: synthetic peptide
Nature of the test: Dose-response FP control assay in the absence of 14-3-3. It counts as binding. Particulars: for FP signal: No 14-3-3; for Polarization in the absence of 14-3-3, background subtracted: replicates. The gist of the method: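 Control run without 14-3-3: FITC-CFTR pS753/pS768 peptide (100 nM or 10 nM) with compound titrated in twofold dilutions in 10 mM HEPES pH 7.4, 150 mM NaCl, 0.1% Tween20, 1 mg/mL BSA. Fluorescence polarization read at ex 485/em 535 nm, background subtracted, n = 3. Curves fitted by four-parameter log(agonist) vs. response.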

Values joined by “and” are separate entries in the source; they are usually repeats but may differ in a detail not shown here. Equal values may be shown once.

Experimental findings from PMC9226124, “Macrocycle-stabilization of its interaction with 14-3-3 increases plasma membrane localization and activity of CFTR” (Nature Communications, 2022) are described below.

T1 sequence (P13569 747-774 limits assumed): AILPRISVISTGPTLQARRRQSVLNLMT

Consider `N=C(N)NCCCC1NC(=O)C(CCC(N)=O)NC(=O)C(CCCNC(=N)N)NC(=O)C2CCCN2Cc2cccc(c2)-c2ccccc2CNC1=O` (stereo not shown) [CY007455], for which the FP signal was 5 (compound 476.8 pM); 6 (compound 953.7 pM); 3 (compound 1.90735e-9 M); 4 (compound 3.8147e-9 M); 5 (compound 7.6294e-9 M); 4 (compound 1.52588e-8 M). The FP signal (compound 3.05176e-8 M) came to 4; the FP signal (compound 6.10352e-8 M) came to 5; the FP signal (compound 1.2207e-7 M) was found to be 7; the FP signal (compound 2.44141e-7 M) stood at 6; the FP signal (compound 4.88281e-7 M) worked out at 4; the FP signal (compound 9.76563e-7 M) turned out to be 4. Moreover, the FP signal was found to be 5 (compound 1.95313e-6 M); 9 (compound 3.90625e-6 M); 8 (compound 7.8125e-6 M); 15 (compound 1.5625e-5 M); 26 (compound 3.125e-5 M); 53 (compound 6.25e-5 M). The FP signal reads like this: (compound 0.000125 M) 107; (compound 0.00025 M) 170; (compound 0.0005 M) 209; (compound 0.001 M) 244.

On to `N=C(N)NCCCC1NC(=O)C(CCC(N)=O)NC(=O)C(CCCNC(=N)N)NC(=O)C2CCCN2Cc2cccc(c2)-c2ccccc2CNC1=O` (stereo not shown) [CY007458], for which the FP signal was found to be 6 (compound 476.8 pM); 5 (compound 953.7 pM); 4 (compound 1.90735e-9 M); 5 (compound 3.8147e-9 M); 7 (compound 7.6294e-9 M); 4 (compound 1.52588e-8 M). Also, the FP signal amounted to 6 (compound 3.05176e-8 M); 5 (compound 6.10352e-8 M); 4 (compound 1.2207e-7 M); 5 (compound 2.44141e-7 M); 6 (compound 4.88281e-7 M); 6 (compound 9.76563e-7 M). Moreover, the FP signal (compound 1.95313e-6 M) is on record as 5; the FP signal (compound 3.90625e-6 M) was determined as 8; the FP signal (compound 7.8125e-6 M) is listed as 11; the FP signal (compound 1.5625e-5 M) is 15; the FP signal (compound 3.125e-5 M) is listed as 33; the FP signal (compound 6.25e-5 M) stood at 65. Besides, the FP signal is, setting by setting: (compound 0.000125 M) 124; (compound 0.00025 M) 179; (compound 0.0005 M) 221; (compound 0.001 M) 252.

As for `N=C(N)NCCCC1NC(=O)C(CCC(N)=O)NC(=O)C(CCCNC(=N)N)NC(=O)C2Cc3ccccc3CN2Cc2cccc(c2)-c2ccccc2CNC1=O` (stereo not shown) [CY007493], the FP signal was 2 (compound 324.2 pM); 1 (compound 648.5 pM); 2 (compound 1.297e-9 M); 3 (compound 2.59399e-9 M); 3 (compound 5.18799e-9 M); 3 (compound 1.0376e-8 M). Further, the FP signal was 3 (compound 2.0752e-8 M); 3 (compound 4.15039e-8 M); 2 (compound 8.30078e-8 M); 5 (compound 1.66016e-7 M); 4 (compound 3.32031e-7 M); 3 (compound 6.64062e-7 M). This compound also came in with an FP signal (compound 1.32813e-6 M) of 4; an FP signal (compound 2.65625e-6 M) of 5; an FP signal (compound 5.3125e-6 M) of 6; an FP signal (compound 1.0625e-5 M) of 4; an FP signal (compound 2.125e-5 M) of 10; an FP signal (compound 4.25e-5 M) of 18. Moreover, the FP signal reads like this: (compound 8.5e-5 M) 37; (compound 0.00034 M) 117; (compound 0.00068 M) 184; (compound […]) 71.

As to `N=C(N)NCCCC1NC(=O)C(CCC(N)=O)NC(=O)C(CCCNC(=N)N)NC(=O)C2CCCN2Cc2ccccc2Sc2ccccc2CNC1=O` (stereo not shown) [CY007502], the FP signal runs as follows: (compound 453 pM) 1; (compound 906 pM) 2; (compound 1.81198e-9 M) 2; (compound 3.62396e-9 M) 3; (compound 7.24792e-9 M) 3; (compound 1.44958e-8 M) 1. The FP signal runs as follows: (compound 2.89917e-8 M) 3; (compound 5.79834e-8 M) 4; (compound 1.15967e-7 M) 3; (compound 2.31934e-7 M) 4; (compound 4.63867e-7 M) 6; (compound 9.27734e-7 M) 3. In addition, the FP signal is reported as 3 (compound 1.85547e-6 M); 4 (compound 3.71094e-6 M); 6 (compound 7.42187e-6 M); 6 (compound 1.48437e-5 M); 6 (compound 2.96875e-5 M); 26 (compound 5.9375e-5 M). Also, the FP signal is, setting by setting: (compound 0.00011875 M) 67; (compound 0.0002375 M) 127; (compound 0.000475 M) 188; (compound 0.00095 M) 241.

In the case of `C=CC(C)(C)OC[C@H]1O[C@H](O[C@@H]2C3=C([C@H](C)COC(C)=O)C[C@H](O)[C@]3(C)/C=C3/[C@@H](COC)CC[C@H]3[C@@H](C)[C@H]2O)[C@H](O)[C@@H](OC(C)=O)[C@@H]1O` [FC-A, fusicoccin A, reference compound], the FP signal by setting is: (compound 476.8 pM) 1; (compound 953.7 pM) 5; (compound 1.90735e-9 M) 0; (compound 3.8147e-9 M) 3; (compound 7.6294e-9 M) 3; (compound 1.52588e-8 M) 2. The compound further registered an FP signal (compound 3.05176e-8 M) of 2; an FP signal (compound 6.10352e-8 M) of 1; an FP signal (compound 1.2207e-7 M) of 1; an FP signal (compound 2.44141e-7 M) of 2; an FP signal (compound 4.88281e-7 M) of 4; an FP signal (compound 9.76563e-7 M) of 5. For the same compound, the FP signal reads like this: (compound 1.95313e-6 M) 6; (compound 3.90625e-6 M) 15; (compound 7.8125e-6 M) 23; (compound 1.5625e-5 M) 37; (compound 3.125e-5 M) 53; (compound 6.25e-5 M) 70. In addition, the FP signal runs as follows: (compound 0.000125 M) 91; (compound 0.00025 M) 104; (compound 0.0005 M) 116; (compound 0.001 M) 133. In addition, the “Polarization in the absence of 14-3-3, background subtracted” value is 1.367 and 0.6667 and -0.1333 (compound 7.8125e-7 M); 0.1667 and 0.6667 and 0.3667 (compound 1.5625e-6 M); 0.06667 and -0.03333 and 0.6667 (compound 3.125e-6 M); 0.06667 and -0.2333 and -0.3333 (compound 6.25e-6 M); 0.5667 and 0.6667 (2×) (compound 1.25e-5 M); -0.03333 and 0.6667 and 0.8667 (compound 2.5e-5 M). Besides, the “Polarization in the absence of 14-3-3, background subtracted” value is, setting by setting: (compound 5e-5 M) 1.667 and 1.067 and 1.267; (compound 0.0001 M) 1.667 and 1.167 and 2.267.
